# From PMC11604048, “Constrained TACC3 peptidomimetics for a non-canonical protein–protein interface elucidate allosteric communication in Aurora-A kinase” (Chemical Science, 2024)
# Like-named read-outs stand apart in the source and are kept apart here. *1 amine or outer side, *2 acyl side, *3 side chain or, on linkers, in order; H or OH if unused. Where a SMILES comes first, the peptide text is derived from it. Bridges are numbered along the chain shown (N, C = ends). [ ]: non-standard residue; d: D form. The star is where a group is joined. 5FAM = O=C1OC2(c3ccc(O)cc3Oc3cc(O)ccc32)c2ccc(C(=O)*)cc21; Biphenyl(4,4'-CH2)2 = c1cc(-c2ccc(C[*:2])cc2)ccc1C[*:1]; Pro(trans-4-F) = O=C(O)[C@@H]1C[C@@H](F)CN1; Phe(4-Br) = N[C@@H](Cc1ccc(Br)cc1)C(=O)O; Phe(4-I) = N[C@@H](Cc1ccc(I)cc1)C(=O)O; Nle = CCCC[C@H](N)C(=O)O; Ahx = NCCCCCC(=O)O
# Tests used:
# [1] = biological target: T1, Aurora-A122-403-C290A/C393A (Homo sapiens, UniProt O14965, C290A/C393A); test: FA direct binding assay (Aurora-A titrated into FAM-Ahx-labelled peptide); set-up: ΔG: unit not given here; conditions: for ΔG: Table S6, from direct FA titration, n = 6
# T1 construct: Human Aurora-A kinase domain 122-403 wild-type or C290A/ C393A mutant; His tag (pET30TEV vector) (N, cleaved yes); made in house; host or cells: E. coli RIL, co-expressed with lambda phosphatase (Aurora-A); tracer by solid phase synthesis
# T1 sequence (O14965 122-403 C290A/C393A): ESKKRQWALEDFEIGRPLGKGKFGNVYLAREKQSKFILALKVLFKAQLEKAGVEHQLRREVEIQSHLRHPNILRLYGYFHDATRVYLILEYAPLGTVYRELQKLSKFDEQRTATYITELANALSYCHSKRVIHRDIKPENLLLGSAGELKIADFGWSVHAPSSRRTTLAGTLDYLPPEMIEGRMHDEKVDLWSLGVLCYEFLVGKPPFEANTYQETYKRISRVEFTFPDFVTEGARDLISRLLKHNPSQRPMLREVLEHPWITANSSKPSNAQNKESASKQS
# Protocol: Fluorescence anisotropy (FA) assays – General information.
# All assays were performed using 384-well plates(Greiner Bio-one, UK). […]
# produced as described previously.11 All samples were prepared in 25 mM Tris,150 mM NaCl, 5 mM MgCl2, […]
# (PerkinElmer; Waltham, MA, USA).The parameters were set as follows: Excitation wavelength = 480 nm […]
# Measured data were processed and analysed as previously described.12 Specifically, the perpendicular intensity (P) and parallel intensity (S) were subtracted by the control values and used for calculations of intensity and anisotropy using the following Equations 1, 2, 3, 4, and 5:
# I= (2PG) + S Eq. (SI − 5)
# r = (S − PG) Eq. (SI − 6)
# L = r − r௠௜௡ Eq. (SI − 7)
# y = (k + x + [FL]) − ඥ(k + x + [FL]2 − 4 ∗ x ∗ [FL]) Eq. (SI − 8)
# y = r + r௠௜௡ − r௠௔௫ Eq. (SI − 9)
# Where I = total intensity; P = perpendicular intensity; S = parallel intensity; G = instrument factor; r = anisotropy; Lb = ligand bound fraction; λ = change in intensity between bound and unbound states which […]
# FA direct binding assays. […]
# starting from 700 μM, diluted over 24 points in a 1/2 regime using the FAM-Ahx-labeled peptides at a final fixed concentration of 50 nM per well.
# [2] = biological target: T1, Aurora-A122-403-C290A/C393A; test: Isothermal titration calorimetry (ITC); format: binding; conditions: single titration
# Protocol: Isothermal titration calorimetry (ITC). ITC experiments were carried out using a MicroCal PEAQ-ITC system (Malvern Panalytical) at 25 °C. A stock solution of Aurora-A 122-403-290A/C393A was dialyzed into ITC buffer overnight (25 mM Tris buffer, pH= 7.5; 150 mM NaCl; 5 mM MgCl2; 5 % v/v glycerol), and the same buffer was employed to resuspend a solid portion of the testing peptides. For each experiment, initially, the cell was filled with 275 µl of Aurora-A122-403-290A/C393A (46 μM) and the syringe was loaded with the corresponding peptide at 1.25 mM concentration. An initial injection of 0.5 μL was then followed by 13 injections of 3 μL, every 150 s, with a constant syringe rotation speed of 750 rpm throughout. The signal for the enthalpy of dilution of each peptide into buffer was independently measured in a control titration experiment and then subtracted from the experimental binding traces. The Kd, ΔG°, ΔH° and -TΔS° values were determined via the MicroCal PEAQ-ITC analysis software (Malvern Paranalytical) using a single-site binding model. […]
# [3] = biological target: T1, Aurora-A122-403-C290A/C393A; test: Competition FA assay against FAM-Ahx-TACC3 522-536 tracer; format: binding
# [4] = Table S6, direct FA titration, 50 nM fluorescein-labelled peptide, Tris buffer pH 7.5, mean ± SD, n = 6, read-out: Kd
# [5] = 50 nM fluorescein-labelled peptide, mean ± SD
# [6] = direct FA titration of Aurora-A122-403-C290A/C393A into 50 nM FAM-Ahx-labelled peptide, 25 mM Tris, 150 mM NaCl, 5 mM MgCl2, pH 7.5, 25 °C, mean ± SD, n = 3, read-out: Kd
compound,measurement,setting,value
"CC(C)C[C@H](NC(=O)[C@@H](NC(=O)[C@H](CCC(=O)O)NC(=O)[C@H](C)NC(=O)[C@@H]1C[C@@H](F)CN1C(=O)[C@H](CC(=O)O)NC(=O)[C@@H]1CSCc2ccc(cc2)-c2ccc(cc2)CSC[C@H](NC(=O)[C@H](CCC(=O)O)NC(=O)[C@H](CC(C)C)NC(=O)CCCCCNC(=O)c2ccc3c(c2)C(=O)OC32c3ccc(O)cc3Oc3cc(O)ccc32)C(=O)N[C@@H](CCCCN)C(=O)N[C@@H](CCC(=O)O)C(=O)N[C@@H](CCC(=O)O)C(=O)N[C@@H](CO)C(=O)N[C@@H](Cc2ccc(Br)cc2)C(=O)N1)C(C)C)C(N)=O [FAM-Ahx-TACC3 518-532-L/R-Bph-BrF/fP] ({5FAM-Ahx}-LECKEES[Phe(4-Br)]CD[Pro(trans-4-F)]AEVL-NH2; linker 3-9 via Biphenyl(4,4'-CH2)2)",Kd,[1]; [4],1.48 ± 0.16 µM
same,ΔG,[1]; [5],-33.3 ± 0.3
"CC(C)C[C@H](NC(=O)[C@@H](NC(=O)[C@@H]1CSCc2ccc(cc2)-c2ccc(cc2)CSC[C@H](NC(=O)[C@H](CCC(=O)O)NC(=O)[C@H](CCC(=O)O)NC(=O)[C@H](CCCCN)NC(=O)[C@H](CC(C)C)NC(=O)[C@H](CCC(=O)O)NC(=O)[C@H](CC(C)C)NC(=O)CCCCCNC(=O)c2ccc3c(c2)C(=O)OC32c3ccc(O)cc3Oc3cc(O)ccc32)C(=O)N[C@@H](Cc2ccc(Br)cc2)C(=O)N[C@@H](CCCNC(=N)N)C(=O)N[C@@H](CC(=O)O)C(=O)N2C[C@H](F)C[C@H]2C(=O)N[C@@H](C)C(=O)N1)C(C)C)C(N)=O [FAM-Ahx-TACC3 518-532-S/E-Bph-BrF/fP] ({5FAM-Ahx}-LELKEEC[Phe(4-Br)]RD[Pro(trans-4-F)]ACVL-NH2; linker 7-13 via Biphenyl(4,4'-CH2)2)",Kd,[1]; [4],0.62 ± 0.15 µM
same,ΔG,[1]; [5],-35.5 ± 0.6
"CC(C)C[C@H](NC(=O)[C@@H](NC(=O)[C@@H]1CSCc2ccc(cc2)-c2ccc(cc2)CSC[C@H](NC(=O)[C@H](CCC(=O)O)NC(=O)[C@H](CCC(=O)O)NC(=O)[C@H](CCCCN)NC(=O)[C@H](CC(C)C)NC(=O)[C@H](CCC(=O)O)NC(=O)[C@H](CC(C)C)NC(=O)CCCCCNC(=O)c2ccc3c(c2)C(=O)OC32c3ccc(O)cc3Oc3cc(O)ccc32)C(=O)N[C@@H](Cc2ccc(I)cc2)C(=O)N[C@@H](CCCNC(=N)N)C(=O)N[C@@H](CC(=O)O)C(=O)N2C[C@H](F)C[C@H]2C(=O)N[C@@H](C)C(=O)N1)C(C)C)C(N)=O [FAM-Ahx-TACC3 518-532-S/E-Bph-IF/fP] ({5FAM-Ahx}-LELKEEC[Phe(4-I)]RD[Pro(trans-4-F)]ACVL-NH2; linker 7-13 via Biphenyl(4,4'-CH2)2)",Kd,[1]; [4],0.9 ± 0.2 µM
same,ΔG,[1]; [5],-34.6 ± 0.6
same,Kd,[1]; [6],0.8 ± 0.2 µM
CC(C)C[C@H](NC(=O)[C@@H](NC(=O)[C@H](CCC(=O)O)NC(=O)[C@H](C)NC(=O)[C@@H]1CCCN1C(=O)[C@H](CC(=O)O)NC(=O)[C@H](CCCNC(=N)N)NC(=O)[C@H](Cc1ccccc1)NC(=O)[C@H](CO)NC(=O)[C@H](CCC(=O)O)NC(=O)[C@H](CCC(=O)O)NC(=O)CCCCCNC(=O)c1ccc2c(c1)C(=O)OC21c2ccc(O)cc2Oc2cc(O)ccc21)C(C)C)C(N)=O [FAM-Ahx-TACC3 522-532] ({5FAM-Ahx}-EESFRDPAEVL-NH2),Kd,[1]; [6],7.1 ± 0.8 µM
CC(C)C[C@H](NC(=O)[C@@H](NC(=O)[C@H](CCC(=O)O)NC(=O)[C@H](C)NC(=O)[C@@H]1CCCN1C(=O)[C@H](CC(=O)O)NC(=O)[C@H](CCCNC(=N)N)NC(=O)[C@H](Cc1ccccc1)NC(=O)[C@H](CO)NC(=O)[C@H](CCC(=O)O)NC(=O)[C@H](CCC(=O)O)NC(=O)CCCCCNC(=O)c1ccc2c(c1)C(=O)OC21c2ccc(O)cc2Oc2cc(O)ccc21)C(C)C)C(=O)NCC(=O)N[C@H](C(=O)NCC(=O)N[C@@H](C)C(N)=O)[C@@H](C)O [FAM-Ahx-TACC3 522-536],Kd,[1]; SD,10.5 ± 1.13 µM
CC(C)C[C@H](NC(=O)[C@H](Cc1ccc(O)cc1)NC(=O)[C@H](CC(=O)O)NC(=O)[C@@H](NC(=O)[C@H](CCC(=O)O)NC(=O)[C@H](C)NC(=O)CNC(=O)[C@@H](NC(=O)CNC(=O)[C@H](CC(C)C)NC(=O)[C@@H](NC(=O)[C@H](CCC(=O)O)NC(=O)[C@H](C)NC(=O)[C@@H]1CCCN1C(=O)[C@H](CC(=O)O)NC(=O)[C@H](CCCNC(=N)N)NC(=O)[C@H](Cc1ccccc1)NC(=O)[C@H](CO)NC(=O)[C@H](CCC(=O)O)NC(=O)[C@H](CCC(=O)O)NC(=O)CCCCCNC(=O)c1ccc2c(c1)C(=O)OC21c2ccc(O)cc2Oc2cc(O)ccc21)C(C)C)[C@@H](C)O)C(C)C)C(=O)N[C@@H](CCC(=O)O)C(N)=O [FAM-Ahx-TACC3 522-542] ({5FAM-Ahx}-EESFRDPAEVLGTGAEVDYLE-NH2),Kd,[1]; [6],4.5 ± 0.2 µM
CC(=O)N[C@@H](CCC(=O)O)C(=O)N[C@@H](CCC(=O)O)C(=O)N[C@@H](CO)C(=O)N[C@@H](Cc1ccccc1)C(=O)N[C@@H](CCCNC(=N)N)C(=O)N[C@@H](CC(=O)O)C(=O)N1CCC[C@H]1C(=O)N[C@@H](C)C(=O)N[C@@H](CCC(=O)O)C(=O)N[C@H](C(=O)N[C@@H](CC(C)C)C(=O)NCC(=O)N[C@H](C(=O)NCC(=O)N[C@@H](C)C(N)=O)[C@@H](C)O)C(C)C [TACC3 522-536],Kd,"[2]; ITC 25 °C, Aurora-A 46 µM in cell, Ac-capped peptide 1.25 mM, 25 mM Tris, 150 mM NaCl, 5 mM MgCl2, 5% v/v glycerol, pH 7.5, N restrained fit (N = 1)",57.4 µM
same,Kd,"[2]; ITC as E13, N unrestrained fit",58.6 µM
COc1ccc(C[C@H](NC(=O)[C@H](CO)NC(=O)[C@H](CCC(=O)O)NC(=O)[C@H](CCC(=O)O)NC(C)=O)C(=O)N[C@@H](CCCNC(=N)N)C(=O)N[C@@H](CC(=O)O)C(=O)N2CCC[C@H]2C(=O)N[C@@H](C)C(=O)N[C@@H](CCC(=O)O)C(=O)N[C@H](C(=O)N[C@@H](CC(C)C)C(=O)NCC(=O)N[C@H](C(=O)NCC(=O)N[C@@H](C)C(N)=O)[C@@H](C)O)C(C)C)cc1 [TACC3 522-536_F525Y(OMe)] (Ac-EESY(Me)RDPAEVLGTGA-NH2),IC50,[3]; read-out: IC50,≥ 300 µM
CCCC[C@H](NC(=O)[C@H](CCC(=O)O)NC(=O)[C@H](C)NC(=O)[C@@H]1CCCN1C(=O)[C@H](CC(=O)O)NC(=O)[C@H](CCCNC(=N)N)NC(=O)[C@H](Cc1ccccc1)NC(=O)[C@H](CO)NC(=O)[C@H](CCC(=O)O)NC(=O)[C@H](CCC(=O)O)NC(C)=O)C(=O)N[C@@H](CC(C)C)C(=O)NCC(=O)N[C@H](C(=O)NCC(=O)N[C@@H](C)C(N)=O)[C@@H](C)O [TACC3 522-536_V531nL] (Ac-EESFRDPAE[Nle]LGTGA-NH2),IC50,[3]; read-out: IC50,≥ 300 µM
Ac-EESFRDPAEILGTGA-NH2 [TACC3 522-536_V531I],IC50,[3]; read-out: IC50,≥ 300 µM
Ac-EESYRDPAEVLGTGA-NH2 [TACC3 522-536_F525Y],IC50,[3]; read-out: IC50,≥ 500 µM
"Ac-LECKEESFCDPAEVL-NH2 (disulfide 3-9 (inferred)) [TACC3 518-532 L520C/R526C (ox), disulfide form of the Cys variant]",IC50,"[3]; as E1, oxidised (disulfide) species made in situ from 10 mM stock in aqueous DMSO 33% v/v, air, overnight, WT control (+DMSO) given the same DMSO incubation, mean ± SD, n = 3, read-out: IC50 (ox)",≥ 200 µM
